Measurements from patent publication US10208017B2, “Heterocycles capable of modulating T-cell responses, and methods of using same” (Nogra Pharma Limited, priority 2012, dated 2019).
“Also recorded” adds a separate entry of the source.

Experiments:
[1] = system: phospho-LAT; experiment: Western blot of TCR related signaling, phospho-LAT; format: cell-based, Human; conditions: 10 min pretreatment, 10 min PHA; compared to a stimulated untreated control
Method: (§1) Lymphocytes were seeded in a 6 well plate (1.0·10^7/well), pretreated for 10 minutes with S3.1, S3.4 or dexamethasone and stimulated for 10 minutes with PHA. The experiment was stopped by adding a large volume of ice cold PBS to the cells. The suspension was transferred to a tube, briefly spinned down in a centrifuge and the supernatant removed. The pellet was lysed by adding cold lysis buffer (0.1% NP40, 50 mM TrisHCl, 1 mM EDTA, 1 mM EGTA, 150 mM NaCl, 200 μM Na3VO4, 10 mM NaF and protease inhibitors) and incubating 20 minutes on ice.
(§2) To investigate the cell signaling events that are affected by treatment with S3.1 and S3.4, lysates were supplemented with sample buffer (188 mM Tris-Cl (pH 6.8), 3% SDS, 30% glycerol, 0.01% bromophenol blue, 15% β-mercaptoethanol), heated to 95° C. for 5 minutes, cooled on ice and sonicated. Samples were then run on 10% SDS-PAGE gel, blotted to PVDF membrane and incubated with antibodies for phospho-Zap70 (Cell Signaling Technology (Beverly, Mass.)) and phospho-LAT (Cell Signaling Technology (Beverly, Mass.)). To show equal loading of the samples the blot was incubated with an antibody directed against beta-actin (Santa Cruz Biotechnology (Heidelberg, Germany)).

[2] = system: interaction between lymphocyte-specific protein tyrosine kinase (LCK) and its chaperone Hsp90; experiment: Immunoprecipitation of Lck and blotting for Hsp90; format: cell-based, Human; conditions: Lck immunoprecipitation, PHA stimulated lymphocytes
Method: as §1
The kinase Lck acts as a gate keeper to T cell receptor (TCR) related signaling as it is one of the first and most up stream kinases to be activated upon stimulation of the TCR. As downstream signaling of the TCR is inhibited by S3.1 and S3.4 treatment interactions with Lck were investigated by immunoprecipitating Lck and blotting for Hsp90. For immunprecipitation experiments 1.0·10^7 cells were used per condition. Cells were pelleted and lysed as described previously. The supernatant was precleared by adding 10 μl Protein A/G UltraLink resin (Pierce Biotechnology, Rockford, USA) for 30 minutes at 4° C. Beads were spinned down and discarded. Samples were incubated with 2 μg primary antibody and 25 μl beads for 2 hours at 4° C. Beads were washed with PBS, sample buffer was added and heated to 95° C. for 5 minutes.

[3] = system: phospho-Zap70; experiment: Western blot of TCR related signaling, phospho-Zap70; format: cell-based, Human; conditions: 10 min pretreatment, 10 min PHA; compared to a stimulated untreated control
Method: as §1, §2

[4] = system: Human peripheral blood lymphocytes (PBLs) stimulated with PHA; experiment: Inhibition of T lymphocyte proliferation (tritiated thymidine); format: cell-based

In the case of `c1ccc(CN2CCCC(c3ccnc(SCCN4CCCC4)n3)C2)cc1` (stereo not shown) [S3.4, 4-(1-benzylpiperidin-3-yl)-2-(2-(pyrrolidin-1-yl)ethylthio)-pyrimidine], the “phosphorylation level of scaffolding protein LAT” value [1] is reported as “lower phosphorylation levels”, the “interaction between LCK and its chaperone Hsp90” value [2] is reported as “lost” and the “phosphorylation level of kinase Zap70” value [3] is reported as “lower phosphorylation levels”. For the same molecule, the “effect on lymphocyte proliferation” value [4] was “antiproliferative effect; also recorded: shows effect on lymphocyte proliferation”.
